Laboratory results from PubChem BioAssay AID256 (DTP/NCI, 2004).
Where “and” joins values, the source holds several entries; their conditions need not be identical. Equal entries are not always repeated. Toxic doses and inconclusive results are not listed. The calls were made as follows: active = survival T/C of 150% or more; inactive = T/C below 125% in these data.

Tested on: CD2F1 mice, L1210 leukemia ip, survival T/C
Test: NCI In Vivo Anticancer Drug Screen. Data for tumor model L1210 Leukemia (intraperitoneal) in CD2F1 (CDF1) mice
Conditions: higher = longer survival
Procedure, shortened: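 In this screen, transplantable tumors were grown in mice given either the compound or its vehicle. Results were expressed as the treated measurement relative to the control measurement.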

[1] = endpoint: mean survival time, dose: 75.0 mg/kg/injection, schedule: Q01DX001 (ip), vehicle: saline
[2] = endpoint: median survival time, dose: 12.5 mg/kg/injection, schedule: Q01DX009 (ip), vehicle: Klucel (hydroxypropylcellulose) (HPC)
[3] = endpoint: mean survival time, dose: 25.0 mg/kg/injection, schedule: Q04DX002 (ip), vehicle: saline with Tween-80
[4] = endpoint: mean survival time, dose: 100.0 mg/kg/injection, schedule: Q04DX002 (ip), vehicle: saline with Tween-80
[5] = endpoint: mean survival time, dose: 200.0 mg/kg/injection, schedule: Q04DX002 (ip), vehicle: saline with Tween-80
[6] = endpoint: mean survival time, dose: 400.0 mg/kg/injection, schedule: Q04DX002 (ip), vehicle: saline with Tween-80
[7] = endpoint: mean survival time, dose: 100.0 mg/kg/injection, schedule: Q01DX001 (ip), vehicle: saline with Tween-80
[8] = endpoint: mean survival time, dose: 100.0 mg/kg/injection, schedule: Q01DX009 (ip), vehicle: saline with Tween-80
[9] = endpoint: mean survival time, dose: 100.0 mg/kg/injection, schedule: Q04DX003 (ip), vehicle: saline with Tween-80
[10] = endpoint: mean survival time, dose: 200.0 mg/kg/injection, schedule: Q01DX001 (ip), vehicle: saline with Tween-80
[11] = endpoint: mean survival time, dose: 200.0 mg/kg/injection, schedule: Q01DX009 (ip), vehicle: saline with Tween-80
[12] = endpoint: mean survival time, dose: 200.0 mg/kg/injection, schedule: Q04DX003 (ip), vehicle: saline with Tween-80
[13] = endpoint: mean survival time, dose: 50.0 mg/kg/injection, schedule: Q01DX009 (ip), vehicle: saline
[14] = endpoint: mean survival time, dose: 50.0 mg/kg/injection, schedule: Q01DX009 (ip), vehicle: other

Measured: T/C

O=C1c2ccccc2C(=O)n2nc3ccccc3c21
inactive: endpoint: median survival time, dose: 50.0 mg/kg/injection, schedule: Q04DX002 (ip), vehicle: saline with Tween-80 100 % of control | endpoint: median survival time, dose: 100.0 mg/kg/injection, schedule: Q04DX002 (ip), vehicle: saline with Tween-80 100 % of control | endpoint: median survival time, dose: 200.0 mg/kg/injection, schedule: Q04DX002 (ip), vehicle: saline with Tween-80 90 % of control | endpoint: median survival time, dose: 400.0 mg/kg/injection, schedule: Q04DX002 (ip), vehicle: saline with Tween-80 100 % of control

NCC1CCCC1N (stereo not given)
inactive: endpoint: mean survival time, dose: 18.8 mg/kg/injection, schedule: Q01DX001 (ip), vehicle: saline 114 % of control | endpoint: mean survival time, dose: 18.8 mg/kg/injection, schedule: Q04DX003 (ip), vehicle: saline 101 % of control | endpoint: mean survival time, dose: 37.5 mg/kg/injection, schedule: Q01DX001 (ip), vehicle: saline 108 % of control | endpoint: mean survival time, dose: 37.5 mg/kg/injection, schedule: Q04DX003 (ip), vehicle: saline 101 % of control | [1] 103 % of control | endpoint: mean survival time, dose: 75.0 mg/kg/injection, schedule: Q04DX003 (ip), vehicle: saline 104 % of control

NC(=O)C1(C(N)=O)CCCC1
inactive: endpoint: mean survival time, dose: 75.0 mg/kg/injection, schedule: Q04DX002 (ip), vehicle: saline with Tween-80 112 % of control | endpoint: mean survival time, dose: 150.0 mg/kg/injection, schedule: Q04DX002 (ip), vehicle: saline with Tween-80 96 % of control | endpoint: mean survival time, dose: 300.0 mg/kg/injection, schedule: Q04DX002 (ip), vehicle: saline with Tween-80 96 % of control

C=C1c2cccc(O)c2C(O)=C2C(=O)[C@]3(O)C(O)=C(C(N)=O)C(=O)[C@@H](N(C)C)[C@@H]3[C@@H](O)[C@H]12
inactive: [2] 96 % of control | endpoint: median survival time, dose: 25.0 mg/kg/injection, schedule: Q01DX009 (ip), vehicle: Klucel (hydroxypropylcellulose) (HPC) 104 % of control | endpoint: median survival time, dose: 50.0 mg/kg/injection, schedule: Q01DX009 (ip), vehicle: Klucel (hydroxypropylcellulose) (HPC) 107 % of control | endpoint: median survival time, dose: 100.0 mg/kg/injection, schedule: Q01DX009 (ip), vehicle: Klucel (hydroxypropylcellulose) (HPC) 114 % of control

c1ccc2sc(SCCSc3nc4ccccc4s3)nc2c1
inactive: [3] 107 % of control | [4] 88 % of control | [5] 87 % of control | [6] 87 % of control

O=[Se](O)O.[NH-]C1CCCCC1[NH-].[Pt+2] (stereo not given)
inactive: endpoint: mean survival time, dose: 1.0 mg/kg/injection, schedule: Q04DX003 (ip), vehicle: dextrose 124 % of control

CCOC(=O)c1ccc(NC(=O)Nc2ccc(N(C)C(C)=O)cc2)cc1
inactive: endpoint: mean survival time, dose: 25.0 mg/kg/injection, schedule: Q04DX003 (ip), vehicle: saline with Tween-80 98 % of control | endpoint: mean survival time, dose: 50.0 mg/kg/injection, schedule: Q01DX009 (ip), vehicle: saline with Tween-80 87 % of control | endpoint: mean survival time, dose: 50.0 mg/kg/injection, schedule: Q04DX003 (ip), vehicle: saline with Tween-80 96 % of control | [7] 100 % of control | [8] 87 % of control and 101 % of control | [4] 90 % of control and 97 % of control | [9] 94 % of control and 109 % of control | [10] 97 % of control | [11] 90 % of control and 91 % of control | [5] 87 % of control and 91 % of control | [12] 104 % of control | endpoint: mean survival time, dose: 400.0 mg/kg/injection, schedule: Q01DX001 (ip), vehicle: saline with Tween-80 102 % of control | [6] 88 % of control and 94 % of control

CCOC(=O)C(C(=O)OCC)C(C[N+](=O)[O-])c1ccccc1 (stereo not given)
inactive: [13] 92 % of control | endpoint: mean survival time, dose: 100.0 mg/kg/injection, schedule: Q01DX009 (ip), vehicle: saline 116 % of control | endpoint: mean survival time, dose: 200.0 mg/kg/injection, schedule: Q01DX009 (ip), vehicle: saline 96 % of control

COc1ccc(NC(=O)Nc2cc(Cl)c(OC)cc2OC)cc1
inactive: [4] 93 % of control | [5] 86 % of control

COc1c(C=O)c2c(c(OC)c1OC)-c1ccc(OC)c(=O)cc1[C@@H](NC(C)=O)CC2
inactive: [2] 100 % of control

NCc1ccc(-c2nc3ncnc(N)c3[nH]2)cc1
inactive: endpoint: mean survival time, dose: 3.13 mg/kg/injection, schedule: Q01DX001 (ip), vehicle: saline with Tween-80 108 % of control | endpoint: mean survival time, dose: 6.25 mg/kg/injection, schedule: Q01DX001 (ip), vehicle: saline with Tween-80 102 % of control | endpoint: mean survival time, dose: 12.5 mg/kg/injection, schedule: Q01DX001 (ip), vehicle: saline with Tween-80 100 % of control and 110 % of control | endpoint: mean survival time, dose: 25.0 mg/kg/injection, schedule: Q01DX001 (ip), vehicle: saline with Tween-80 102 % of control | endpoint: mean survival time, dose: 50.0 mg/kg/injection, schedule: Q01DX001 (ip), vehicle: saline with Tween-80 109 % of control | [7] 106 % of control and 110 % of control

COc1cc(Cl)ccc1NC(=O)Nc1ccccc1C
inactive: [3] 90 % of control | endpoint: mean survival time, dose: 50.0 mg/kg/injection, schedule: Q04DX002 (ip), vehicle: saline with Tween-80 94 % of control | [4] 94 % of control | [5] 90 % of control | [6] 90 % of control

COc1cc(C)c2c(c1C=O)Oc1c(c(C)c(O)c3c1C(O)OC3=O)OC2=O (stereo not given)
inactive: endpoint: mean survival time, dose: 3.12 mg/kg/injection, schedule: Q01DX009 (ip), vehicle: saline 94 % of control | endpoint: mean survival time, dose: 6.25 mg/kg/injection, schedule: Q01DX009 (ip), vehicle: saline 92 % of control | endpoint: mean survival time, dose: 12.5 mg/kg/injection, schedule: Q01DX009 (ip), vehicle: saline 100 % of control | endpoint: mean survival time, dose: 25.0 mg/kg/injection, schedule: Q01DX009 (ip), vehicle: saline 92 % of control | [13] 97 % of control

CCOC(=O)C1CC(=O)C(C(=O)OCC)CC1=O (stereo not given)
inactive: [8] 100 % of control | [4] 107 % of control | [9] 100 % of control | [11] 97 % of control | [5] 98 % of control | [12] 93 % of control | endpoint: mean survival time, dose: 400.0 mg/kg/injection, schedule: Q01DX009 (ip), vehicle: saline with Tween-80 97 % of control | [6] 102 % of control | endpoint: mean survival time, dose: 400.0 mg/kg/injection, schedule: Q04DX003 (ip), vehicle: saline with Tween-80 98 % of control

O=C(NC(=S)Nc1cccc(F)c1)c1cccc(Br)c1
inactive: [14] 98 % of control and 104 % of control | endpoint: mean survival time, dose: 50.0 mg/kg/injection, schedule: Q04DX003 (ip), vehicle: other 111 % of control | endpoint: mean survival time, dose: 100.0 mg/kg/injection, schedule: Q01DX001 (ip), vehicle: other 102 % of control | endpoint: mean survival time, dose: 100.0 mg/kg/injection, schedule: Q04DX002 (ip), vehicle: other 95 % of control | endpoint: mean survival time, dose: 100.0 mg/kg/injection, schedule: Q04DX003 (ip), vehicle: other 104 % of control | endpoint: mean survival time, dose: 200.0 mg/kg/injection, schedule: Q01DX001 (ip), vehicle: other 98 % of control | endpoint: mean survival time, dose: 200.0 mg/kg/injection, schedule: Q04DX002 (ip), vehicle: other 91 % of control | endpoint: mean survival time, dose: 200.0 mg/kg/injection, schedule: Q04DX003 (ip), vehicle: other 102 % of control | endpoint: mean survival time, dose: 400.0 mg/kg/injection, schedule: Q04DX002 (ip), vehicle: other 101 % of control | endpoint: mean survival time, dose: 400.0 mg/kg/injection, schedule: Q04DX003 (ip), vehicle: other 106 % of control

CC(/C=N\O)=N\O
inactive: [7] 97 % of control | [10] 103 % of control

CC(=O)OCC1OC(OC(C)=O)C(NC(=O)NS(=O)(=O)c2ccc(C)cc2)C(OC(C)=O)C1OC(C)=O (stereo not given)
inactive: endpoint: mean survival time, dose: 12.5 mg/kg/injection, schedule: Q01DX009 (ip), vehicle: other 105 % of control | endpoint: mean survival time, dose: 25.0 mg/kg/injection, schedule: Q01DX009 (ip), vehicle: other 98 % of control | [14] 93 % of control | endpoint: mean survival time, dose: 100.0 mg/kg/injection, schedule: Q01DX009 (ip), vehicle: other 94 % of control | endpoint: mean survival time, dose: 200.0 mg/kg/injection, schedule: Q01DX009 (ip), vehicle: other 94 % of control

COc1ccc(C=C(C(=O)CCN(C)C)C(=O)CCN(C)C)cc1
inactive: endpoint: median survival time, dose: 25.0 mg/kg/injection, schedule: Q01DX005 (ip), vehicle: saline 100 % of control | endpoint: median survival time, dose: 50.0 mg/kg/injection, schedule: Q01DX005 (ip), vehicle: saline 100 % of control | endpoint: median survival time, dose: 100.0 mg/kg/injection, schedule: Q01DX005 (ip), vehicle: saline 100 % of control | endpoint: median survival time, dose: 200.0 mg/kg/injection, schedule: Q01DX005 (ip), vehicle: saline 102 % of control

C#CC[N+](C)(C)CCNC(=O)CCCCCCCCCCCCCCC
inactive: [1] 102 % of control

COC(=O)C1CC[N-]CC1.COC(=O)C1CC[N-]CC1.[Cl][Pt+2][Cl]
inactive: [8] 115 % of control | [11] 114 % of control
